Data taken from US9708321B2, “Spiro-quinazolinone derivatives and their use as positive allosteric modulators of mGluR4” (Merck Patent GmbH, priority 2013, dated 2017).

Each compound was assayed against T1, hmGluR4 (Homo sapiens, UniProt Q14833) (assay: HEK-293 mGluR4 cells cAMP assay with EC20 L-Glutamate (HTRF)). Conditions: positive allosteric activity at EC20 L-Glutamate, 10 μM Forskolin, HEK293T mGluR4 cells, cAMP HTRF; read-out: hrmGluR4/HEK293T-hmGluR4 (EC50).
T1 construct: host or cells: HEK293T
T1 sequence (Q14833 33-912): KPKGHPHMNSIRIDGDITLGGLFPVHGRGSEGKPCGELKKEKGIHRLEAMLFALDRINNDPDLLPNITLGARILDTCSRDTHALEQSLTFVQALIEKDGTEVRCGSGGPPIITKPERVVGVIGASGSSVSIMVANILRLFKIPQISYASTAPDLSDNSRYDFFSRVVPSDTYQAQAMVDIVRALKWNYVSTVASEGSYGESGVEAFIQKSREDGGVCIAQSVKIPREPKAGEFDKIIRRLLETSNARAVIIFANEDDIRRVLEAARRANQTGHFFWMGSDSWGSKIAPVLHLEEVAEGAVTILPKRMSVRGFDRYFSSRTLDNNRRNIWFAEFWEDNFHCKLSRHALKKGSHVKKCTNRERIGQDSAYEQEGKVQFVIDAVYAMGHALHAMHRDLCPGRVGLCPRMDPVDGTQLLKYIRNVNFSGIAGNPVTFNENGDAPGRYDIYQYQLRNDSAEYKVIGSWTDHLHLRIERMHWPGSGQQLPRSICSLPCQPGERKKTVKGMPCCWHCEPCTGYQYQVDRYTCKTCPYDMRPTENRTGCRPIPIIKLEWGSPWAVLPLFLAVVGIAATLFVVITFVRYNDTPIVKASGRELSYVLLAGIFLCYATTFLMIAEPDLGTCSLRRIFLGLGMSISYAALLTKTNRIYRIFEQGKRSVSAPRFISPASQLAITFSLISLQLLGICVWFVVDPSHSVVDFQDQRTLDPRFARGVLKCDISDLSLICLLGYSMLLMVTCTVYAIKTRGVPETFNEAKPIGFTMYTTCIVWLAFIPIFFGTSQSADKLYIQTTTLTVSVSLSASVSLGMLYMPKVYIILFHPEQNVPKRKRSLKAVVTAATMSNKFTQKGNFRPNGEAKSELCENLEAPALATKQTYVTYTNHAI
Type: cell-based
Method: II. Biological Assays HEK-293 mGluR4 Cells cAMP Assay with EC20 L-Glutamate
Using mGluR4 suspension cell format, 10 μM Forskolin (final conc.) used to induce the production of cAMP.
Test the positive allosteric activity of the compounds of the invention at EC20 (2.3 μM for mGluR4 and 4.3 μM for mGluR6) L-Glutamate,
cAMP dymanic2 kit is intended for the direct quantitative determination of cAMP and its principle is based on HTRF technology.
• Cells: HEK293T mGluR4 cells from Multispan, cat# C1191a lot# C1191a-040910 • Culture Media: DMEM+GlutaMAX1+10% dialyzed FBS, 100 mM Sodium Pyruvate, 1 ug/ml puromycin. • Glutamine Starvation Media: DMEM without GlutaMax for plating the cells (glutamine starvation overnight). DMEM high Glucose, without phenol red, glutamine, or sodium pyruvate+10% dialyzed FBS, 100 mM Sodium Pyruvate, 1 ug/ml puromycin, 10 mM Hepes. • Hanks' balanced Salt Solution, HBSS from Invitrogen • Greiner 384 well white low volume high base plate (784075) • cAMP dynamic2 from Cisbio Bioassays • Glutamate: L-Glutamaic acid, monosodium salt, Monohydrate, 98%, from Sigma-Aldrich • Cell Preparation: split cells at 80%-90% confluence. The following day, rinse the cells with DMEM without GlutaMax and change to Glutamine Starvation Media. Incubate overnight. Assay: • Prepare compound plate: Perform compound serial dilution (uses Matrix 4341 plate), using the Bravo liquid handling platform protocol (compound serial dilution) which adds DMSO to columns 1-24 (except cols. 3 and 13). Serial dilute compounds located in columns 3 and 13 at a 1:3 ratio; 10 points (10 ul of 3 mM compound into 20 ul DMSO). Use the Bravo liquid handling platform to transfer 1 ul from the serial dilution plate into Matrix 4314 plate to create stamp plates. Prepare Compound Dilution Buffer: • Dilute 20 mM Forskolin (in DMSO) stock solution in HBSS buffer to make a 20 uM solution (forskolin buffer; 2× solution). To the forskolin buffer, add glutamate to a concentration of 8 uM (compound dilution buffer; 2× EC20 glutamate and forskolin). • Using a multidrop, add 50 ul/well of compound dilution buffer to columns 1-22 of the 2 ul compound stamp plate. Columns 23 and 24 receive forskolin buffer containing 400 uM glutamate (EC100 glutamate; 2× solution). Columns 1 and 2 receive compound dilution buffer containing EC20 glutamate, which is the basal control. • Add a glutamate dose response to row P of compound plate. Prepare the dose response by serial diluting glutamate at a 1:3 ratio in forskolin buffer starting at 2 mM glutamate (2×). Dilute the glutamate 9 times and transfer to compound plate. Prepare Cell Plates: • Harvest cells: Rinse cells with pre-warmed HBSS-10 mM HEPES (without Ca Mg) and dissociate the cells from the flask with versene. Centrifuge the cells, remove the supernatant and suspend in pre-warmed HBSS+10 mM Hepes. Count the cells and centrifuge. Remove the supernatant and suspend the cells in HBSS+Hepes (with Ca Mg) at a density of 400,000 cells/ml. Perform Assay: • Dispense 5 ul from the diluted compound plate into Greiner low volume cell plate using the Bravo liquid handling platform. Using a Multidrop with the small tubing cassette, dispense 5 ul of cells (2000 cells/well) onto the compounds contained in the low volume plates. Incubate the cells at 37° C., 5% CO2 for 30 minutes in the incubator. Assay for cAMP: • Prepare cAMP-d2 and anti-cAMP-Crytate according to the instructions for the two step assay (see Cisbio manual) and add 10 ul of the mixed reagent to each well of the assay plate using the Multidrop. Incubate at room temperature for 60 minutes and read on the Envision plate reader using the mGluR low volume cAMP HTRF 384 well protocol.

| SMILES | EC50 |
| --- | --- |
| COCCOc1ccc(N2C(=O)c3ccc(F)cc3NC23CN(Cc2ccccc2Cl)C3)cc1 [Compound 124, 1-(2-Chlorobenzyl)-7′-fluoro-3′-(4-(2-methoxyethoxyl)phenyl)-1′H-spiro[azetidine-3,2′-quinazolin]-4′(3′H)-one] | 1000 to 10000 nM |
| O=C1c2ccc(F)cc2NC2(CN(Cc3ccccc3Cl)C2)N1c1ccc(OC(F)(F)F)cc1 [Compound 70, 1-(2-Chlorobenzyl)-7′-fluoro-3′-(4-(trifluoromethoxy)phenyl)-1′H-spiro[azetidine-3,2′-quinazolin]-4′(3′H)-one] | 1000 to 10000 nM |
| N#Cc1cccc(CN2CC3(C2)Nc2cc(C(F)(F)F)ccc2C(=O)N3c2ccc(OC(F)(F)F)cc2)c1 [Compound 91, 3-((4′-Oxo-3′-(4-(trifluoromethoxy)phenyl)-7′-(trifluoromethyl)-3′,4′-dihydro-1′H-spiro[azetidine-3,2′-quinazolin]-1-yl)methyl)benzonitrile] | 1000 to 10000 nM |
| COc1ccc(N2C(=O)c3ccc(Br)cc3NC23CCN(Cc2ccc(F)c(F)c2)CC3)cc1 [Compound 17, 7′-Bromo-1-(3,4-difluorobenzyl)-3′-(4-methoxyphenyl)-1′H-spiro[piperidine-4,2′-quinazolin]-4′(3′H)-one] | < 1000 nM |
| CCOC(=O)c1ccc2c(c1)NC1(CCN(Cc3ccc(F)c(F)c3)CC1)N(c1ccc(OC(F)(F)F)cc1)C2=O [Compound 29, Ethyl 1-(3,4-difluorobenzyl)-4′-oxo-3′-(4-(trifluoromethoxy)phenyl)-3′,4′-dihydro-1′H-spiro[piperidine-4,2′-quinazoline]-7′-carboxylate] | < 1000 nM |
| COc1ccc(N2C(=O)c3ccc(N4CCCCC4)cc3NC23CCN(Cc2ccc(F)c(F)c2)CC3)cc1 [Compound 83, 1-(3,4-Difluorobenzyl)-3′-(4-methoxyphenyl)-7′-(piperidin-1-yl)-1′H-spiro[piperidine-4,2′-quinazolin]-4′(3′H)-one] | 1000 to 10000 nM |
| COc1ccc(N2C(=O)c3ccccc3NC23CN(Cc2cccc4ccccc24)C3)cc1 [Compound 86, 3′-(4-Methoxyphenyl)-1-(naphthalen-1-ylmethyl)-1′H-spiro[azetidine-3,2′-quinazolin]-4′(3′H)-one] | 1000 to 10000 nM |
| COc1ccc(N2C(=O)c3ccccc3NC23CCN(Cc2cc(F)cc(F)c2)CC3)cc1 [Compound 80, 1-(3,5-Difluorobenzyl)-3′-(4-methoxyphenyl)-1′H-spiro[piperidine-4,2′-quinazolin]-4′(3′H)-one] | 1000 to 10000 nM |
| O=C1c2ccc(Br)cc2NC2(CCN(Cc3ccccc3)CC2)N1c1ccc(OC(F)(F)F)cc1 [Compound 28, 1-Benzyl-7′-bromo-3′-(4-(trifluoromethoxy)phenyl)-1′H-spiro[piperidine-4,2′-quinazolin]-4′(3′H)-one] | < 1000 nM |
| COc1ccc(N2C(=O)c3ccccc3NC23CCN(Cc2ccc(Cl)c(Cl)c2)CC3)cc1 [Compound 54, 1-(3,4-Dichlorobenzyl)-3′-(4-methoxyphenyl)-1′H-spiro[piperidine-4,2′-quinazolin]-4′(3′H)-one] | < 1000 nM |
| COc1ccc(N2C(=O)c3ccc(-c4ccco4)cc3NC23CCN(Cc2ccc(F)c(F)c2)CC3)cc1 [Compound 11, 1-(3,4-Difluorobenzyl)-7′-(furan-2-yl)-3′-(4-methoxyphenyl)-1′H-spiro[piperidine-4,2′-quinazolin]-4′(3′H)-one] | < 1000 nM |
| COc1ccc(N2C(=O)c3ccccc3NC23CCN(Cc2ccccc2C(F)(F)F)CC3)cc1 [Compound 66, 3′-(4-Methoxyphenyl)-1-(2-(trifluoromethyl)benzyl)-1′H-spiro[piperidine-4,2′-quinazolin]-4′(3′H)-one] | 1000 to 10000 nM |
| O=C1c2ccc(Br)cc2NC2(CCN(Cc3ccccn3)CC2)N1c1ccc(OC(F)(F)F)cc1 [Compound 103, 7′-Bromo-1-(pyridin-2-ylmethyl)-3′-(4-(trifluoromethoxy)phenyl)-1′H-spiro[piperidine-4,2′-quinazolin]-4′(3′H)-one] | 1000 to 10000 nM |
| O=C1c2ccc(Br)cc2NC2(CCN(Cc3ccnc4ccccc34)CC2)N1c1ccc(OC(F)(F)F)cc1 [Compound 47, 7′-Bromo-1-(quinolin-4-ylmethyl)-3′-(4-(trifluoromethoxy)phenyl)-1′H-spiro[piperidine-4,2′-quinazolin]-4′(3′H)-on] | < 1000 nM |
| COC(=O)c1ccc2c(c1)NC1(CN(Cc3ccccc3)C1)N(c1ccc(OC)cc1)C2=O [Compound 35, Methyl 1-benzyl-3′-(4-methoxyphenyl)-4′-oxo-3′,4′-dihydro-1′H-spiro[azetidine-3,2′-quinazoline]-7′-carboxylate] | < 1000 nM |
| O=C1c2ccc(Br)cc2NC2(CCN(Cc3ccc(F)c(F)c3)CC2)N1c1ccc(C(F)(F)F)cc1 [Compound 52, 7′-Bromo-1-(3,4-difluorobenzyl)-3′-(4-(trifluoromethyl)phenyl)-1′H-spiro[piperidine-4,2′-quinazolin]-4′(3′H)-one] | < 1000 nM |
| COc1ccc(N2C(=O)c3ccccc3NC23CCN(Cc2ccccc2OC(F)(F)F)CC3)cc1 [Compound 67, 3′-(4-Methoxyphenyl)-1-(2-(trifluoromethoxy)benzyl)-1′H-spiro[piperidine-4,2′-quinazolin]-4′(3′H)-one] | 1000 to 10000 nM |
| COc1ccc(N2C(=O)c3ccc(-c4ccncc4)cc3NC23CCN(Cc2ccc(F)c(F)c2)CC3)cc1 [Compound 20, 1-(3,4-Difluorobenzyl)-3′-(4-methoxyphenyl)-7′-(pyridin-4-yl)-1′H-spiro[piperidine-4,2′-quinazolin]-4′(3′H)-one] | < 1000 nM |
| COCCOC(=O)c1ccc2c(c1)NC1(CCN(Cc3ccc(F)c(F)c3)CC1)N(c1ccc(OC(F)(F)F)cc1)C2=O [Compound 99, 2-Methoxyethyl 1-(3,4-difluorobenzyl)-4′-oxo-3′-(4-(trifluoromethoxy)phenyl)-3′,4′-dihydro-1′H-spiro[piperidine-4,2′-quinazoline]-7′-carboxylate] | 1000 to 10000 nM |
| COc1ccc(N2C(=O)c3ccccc3NC23CCC(NC(=O)OC(C)(C)C)CC3)cc1 (stereo not drawn) [Compound 88, tert-Butyl (3′-(4-methoxyphenyl)-4′-oxo-3′,4′-dihydro-1′H-spiro[cyclohexane-1,2′-quinazolin]-4-yl)carbamate] | 1000 to 10000 nM |
| O=C1c2ccc(-c3ccncn3)cc2NC2(CCN(Cc3ccc(F)c(F)c3)CC2)N1c1ccc(OC(F)(F)F)cc1 [Compound 9, 1-(3,4-Difluorobenzyl)-7′-(pyrimidin-4-yl)-3′-(4-(trifluoromethoxy)phenyl)-1′H-spiro[piperidine-4,2′-quinazolin]-4′(3′H)-one] | < 1000 nM |
| O=C1c2ccc(Br)cc2NC2(CCN(Cc3ccccc3O)CC2)N1c1ccc(OC(F)(F)F)cc1 [Compound 49, 7′-Bromo-1-(2-hydroxybenzyl)-3′-(4-(trifluoromethoxy)phenyl)-1′H-spiro[piperidine-4,2′-quinazolin]-4′(3′H)-one] | < 1000 nM |
| CC(=O)c1cc2c(cc1Br)C(=O)N(c1ccc(OC(F)(F)F)cc1)C1(CCN(Cc3ccc(F)c(F)c3)CC1)N2 [Compound 12, 7′-Acetyl-6′-bromo-1-(3,4-difluorobenzyl)-3′-(4-(trifluoromethoxy)phenyl)-1′H-spiro[piperidine-4,2′-quinazolin]-4′(3′H)-one] | < 1000 nM |
| COc1ccc(N2C(=O)c3ccccc3NC23CN(Cc2ccccc2OC(F)(F)F)C3)cc1 [Compound 65, 3′-(4-Methoxyphenyl)-1-(2-(trifluoromethoxy)benzyl)-1′H-spiro[azetidine-3,2′-quinazolin]-4′(3′H)-one] | < 1000 nM |
